This is an account of results in ChEMBL document CHEMBL3046663, “Assessing the effects of three potential chemical repellents to prevent bird damage to corn seeds and seedlings” (Pest Manag Sci, 2013).

The source made the active and inactive calls. No cut-off for these calls is given here.

In series [1] the test system is Columba livia. Kind of series: Bird repellent activity against Columba livia f. domestica fed with compound treated maize seeds assessed as feeding deterrence activity at 1.4 ml/kg measured for 4 days by aviary food choice trials. The series is classed as functional, organism-based.
Series [2] relates to Columba livia. Kind of series: Bird repellent activity against Columba livia f. domestica assessed as decrease in damage of maize seedlings grown from compound-treated seeds at 1.4 ml/kg measured in the field at 2 to 16 days after germination during field trials. The series is classed as functional, organism-based.
Series [3] relates to Columba livia. Briefly: Bird repellent activity against Columba livia f. domestica assessed as decrease in damage of maize seedlings grown from compound-treated seeds at 1.4 ml/kg measured after 3 days exposure during aviary trials. Format: functional, organism-based.
Series [4] concerns Zea mays. Kind of series: Phytotoxicity against Zea mays (maize) seeds assessed as germination rate at 10 degC after 7 days by standard vigour method. The note with it: in vivo, 168 h. The series is classed as organism-based.
In series [5] the test system is Zea mays. Briefly: Phytotoxicity against Zea mays (maize) seeds assessed as germination rate at 25 degC after 5-6 days by standard vigour method. The series is classed as organism-based. Particulars: in vivo.
Series [6] relates to Columba livia. Briefly: Bird repellent activity against Columba livia f. domestica fed with compound treated maize seeds assessed as feeding deterrence activity at 1 ml/kg by aviary food choice trials. Format: functional, organism-based.
The subject of series [7] is Columba livia. Kind of series: Bird repellent activity against Columba livia f. domestica assessed as decrease in damage of maize seedlings grown from compound-treated seeds at 0.085 ml/kg measured in the field at 2 to 16 days after germination during field trials. The series is classed as functional, organism-based.
Series [8] relates to Columba livia. Briefly: Bird repellent activity against Columba livia f. domestica fed with compound treated maize seeds assessed as feeding deterrence activity at 0.085 ml/kg measured for 4 days by aviary food choice trials. The series is classed as functional, organism-based.
In series [9] the test system is Columba livia. Briefly: Bird repellent activity against Columba livia f. domestica assessed as decrease in damage of maize seedlings grown from compound-treated seeds at 0.085 ml/kg measured after 3 days exposure during aviary trials. The series is classed as functional, organism-based.

Take `CC(C)=C1CC[C@@H](C)CC1=O` [PULEGONE]: the result with Columba livia [1] was Active. The inhibition result in the series with Columba livia [2] and in the series on Columba livia [3] was “inactive” in each case. For the same compound, the Activity result in the series with Zea mays [4] and with Zea mays [5] was “Non-toxic” throughout.

Turning to `O=C1c2ccccc2C(=O)c2ccccc21` [ANTHRAQUINONE], the Activity result in the series on Zea mays [4] and with Zea mays [5] was “Non-toxic” each time. The result in the series with Columba livia [6] was inactive.

As to `COC(=O)c1ccccc1N` [METHYL ANTHRANILATE], the Activity result in the series on Zea mays [4] and in the series on Zea mays [5] was “Non-toxic” throughout. Further, the inhibition entry in the series with Columba livia [7] and in the series on Columba livia [9] was “inactive” in each case. Besides, in the series on Columba livia [8], the result was Active.
